Test results: US20210032257A1, “(E)-1-(4-(DIMETHYLAMINO)BUT-2-ENOYL)PYRROLIDIN-3-YL 4-((3-ISOPROPYL-5-METHYLPYRAZOLO[1,5-A]PYRIMIDIN-7-YL)AMINO)PIPERIDINE-1-CARBOXYLATE FOR INHIBITING CDK7” (Eli Lilly and Company, priority 2017, published 2021)

Legend:
Assay type in all cases: biochemical
CDK1/CycB1 = biological target: T1, CDK1/CycB1 (Homo sapiens, UniProt P06493); test: ProQinase WT Profiler radiometric protein kinase assay; details: non standard IC50 from 4 concentrations, kinase 7 nM, ATP 1 μM
T1 construct: purchased ProQinase
Description: (§1) Kinase inhibition profile of compound is determined by measuring residual activity values at four concentrations in singlicate in 320 wild-type protein kinase assays. The compounds are tested at 20 μM, 2 μM, 0.2 μM and 0.02 μM in singlicate. The final DMSO concentration in all reaction cocktails (including high and low controls) is 1%.
(§2) A radiometric protein kinase assay (33PANQINASE® Activity Assay, ProQinase) is used for measuring the kinase activity of the 320 protein kinases. All kinase assays are performed in 96-well FLASHPLATES™ in a 50 μL reaction volume. The reaction cocktail is pipetted in 4 steps in the following order:
(§3) All PKC assays (except the PKC-mu and the PKC-nu assay) additionally contain 1 mM CaCl2). 4 mM EDTA, 5 μg/mL Phosphatidylserine and 1 μg/mL 1,2-Dioleyl-glycerol. The CAMK1D, CAMK2A, CAMK2B, CAMK2D, CAMK2G, CAMK4, CAMKK1, CAMKK2, DAPK2, EEF2K, MYLK, MYLK2 and MYLK3 assays additionally contain 1 μg/mL Calmodulin and 0.5 mM CaCl2). The PRKG1 and PRKG2 assays additionally contain 1 μM cGMP. The DNA-PK assay additionally contained 2.5 μg/mL DNA.
(§4) The protein kinase reaction cocktails are incubated at 30° C. for 60 minutes. The reaction is stopped with 50 μL of 2% (v/v) H3PO4, plates are aspirated and washed two times with 200 μL 0.9% (w/v) NaCl. […] All protein kinase assays are performed with a BeckmanCoulter BIOMEK® 2000/SL robotic system. All protein kinases provided by ProQinase are expressed in Sf9 insect cells or in E. coli as recombinant GST-fusion proteins or His-tagged proteins, either as full-length or enzymatically active fragments. All kinases are produced from human cDNAs and purified by either GSH-affinity chromatography or immobilized metal. Affinity tags are removed from a number of kinases during purification. The purity of the protein kinases is examined by SDS-PAGE/Coomassie staining, the identity is checked by mass spectroscopy. Kinases from external vendors (CAR=Carna Biosciences Inc.; INV=Life Technologies (Invitrogen Corporation™); MIL=Merck-Millipore (Millipore Corporation™), see Table 1) are expressed, purified and quality-controlled by virtue of the vendors readings.
(§5) For each kinase, the median value of the cpm of three wells is defined as “low control” (n=3). This value reflects unspecific binding of radioactivity to the plate in the absence of a protein kinase but in the presence of the substrate. […] The difference between high and low control of each enzyme is taken as 100% activity. As part of the data evaluation, the low control of each kinase is subtracted from the high control value as well as from their corresponding “compound values”. The residual activity (in %) for each compound well is calculated by using the following formula: Res. Activity (%)=100×[(signal of compound−low control)/(high control−low control)]. Non Standard IC50s are calculated using a customized excel spreadsheet in conjunction with XLFit Add-in. Due to the low number of data points, (4) XL-Fit calculates a non standard IC50 using a four parametric equation where three parameters are locked to fixed values.
(§6) A: Minimum value of activity, Also known as Bottom. Fixed to 0 B: Maximum value of activity, Also known as Top. Fixed to 100 C: Inflexion point of the curve D: Hill Slope. Fixed to 1 Y: The dependent variable (i.e. what you measure as the signal) X: The independent variable (i.e. what you control, such as, dose, concentration, etc.)
(§7) The way to calculate the Non Standard IC50 is to assign random values to C parameter and repeat it iteratively. The algorithm then measures the differences in the sum of the residuals squared and will look for successive consecutive iterations where the change in the residuals is converging.

CDK16/CycY = biological target: T2, CDK16/CycY (Homo sapiens, UniProt Q00536); test: as above; details: non standard IC50 from 4 concentrations, kinase 3.2 nM, ATP 0.3 μM
T2 construct: purchased ProQinase
Description: as §1, §2, §3, §4, §5, §6, §7

CDK19/CycC = biological target: T3, CDK19/CycC (Homo sapiens, UniProt Q9BWU1); test: as above; details: non standard IC50 from 4 concentrations, kinase 30.9 nM, ATP 3 μM
T3 construct: purchased ProQinase
Description: as §1, §2, §3, §4, §5, §6, §7

CDK2/CycE1 = biological target: T4, CDK2/CycE1 (Homo sapiens, UniProt P24941); test: as above; details: non standard IC50 from 4 concentrations, kinase 1.5 nM, ATP 1 μM
T4 construct: purchased ProQinase
Description: as §1, §2, §3, §4, §5, §6, §7

CDK4/CycD1 = biological target: T5, CDK4/CycD1 (Homo sapiens, UniProt P11802); test: as above; details: non standard IC50 from 4 concentrations, kinase 3.3 nM, ATP 3 μM
T5 construct: purchased ProQinase
Description: as §1, §2, §3, §4, §5, §6, §7

CDK6/CycD1 = biological target: T6, CDK6/CycD1 (Homo sapiens, UniProt Q00534); test: as above; details: non standard IC50 from 4 concentrations, kinase 3.2 nM, ATP 3 μM
T6 construct: purchased ProQinase
Description: as §1, §2, §3, §4, §5, §6, §7

CDK7/CycH/MAT1 = biological target: T7, CDK7/CycH/MAT1 (Homo sapiens, UniProt P50613); test: as above; details: non standard IC50 from 4 concentrations, kinase 3.3 nM, ATP 3 μM
T7 construct: purchased ProQinase
Description: as §1, §2, §3, §4, §5, §6, §7

CDK8/CycC = biological target: T8, CDK8/CycC (Homo sapiens, UniProt P49336); test: as above; details: non standard IC50 from 4 concentrations, kinase 8.3 nM, ATP 1 μM
T8 construct: purchased ProQinase
Description: as §1, §2, §3, §4, §5, §6, §7

CDK9/CycT1 = biological target: T9, CDK9/CycT1 (Homo sapiens, UniProt P50750); test: as above; details: non standard IC50 from 4 concentrations, kinase 2.2 nM, ATP 1 μM
T9 construct: purchased ProQinase
Description: as §1, §2, §3, §4, §5, §6, §7

CDK12/CycK = biological target: T10, CDK12/CycK (Homo sapiens, UniProt Q9NYV4); test: ProQinase radiometric protein kinase assay, 10 concentrations; details: kinase 14.7 nM, ATP 0.3 μM
T10 construct: purchased ProQinase
Description: as §2, §3
(§8) The protein kinase reaction cocktails are incubated at 30° C. for 60 minutes. […] Kinases from external vendors (CAR=Carna Biosciences Inc.; INV=Life Technologies (Invitrogen Corporation™); MIL=Merck-Millipore (Millipore Corporation™), see Table 1) are expressed, purified and quality-controlled by virtue of the vendors readings.
(§9) CDK12 and CDK13 (ProQinase) are tested essentially as above but separately at 10 concentrations ([…] to […]) using semi-logarithmic dilutions. For the 10 points, the analysis the residual activities for each concentration and the compound IC50 values are calculated using QUATTRO® WORKFLOW™ V3.1.1. […]

CDK13/CycK = biological target: T11, CDK13/CycK (Homo sapiens, UniProt Q14004); test: as above; details: kinase 29.2 nM, ATP 0.3 μM
T11 construct: purchased ProQinase
Description: as §2, §3, §8, §9

T2 sequence (Q00536 whole entry): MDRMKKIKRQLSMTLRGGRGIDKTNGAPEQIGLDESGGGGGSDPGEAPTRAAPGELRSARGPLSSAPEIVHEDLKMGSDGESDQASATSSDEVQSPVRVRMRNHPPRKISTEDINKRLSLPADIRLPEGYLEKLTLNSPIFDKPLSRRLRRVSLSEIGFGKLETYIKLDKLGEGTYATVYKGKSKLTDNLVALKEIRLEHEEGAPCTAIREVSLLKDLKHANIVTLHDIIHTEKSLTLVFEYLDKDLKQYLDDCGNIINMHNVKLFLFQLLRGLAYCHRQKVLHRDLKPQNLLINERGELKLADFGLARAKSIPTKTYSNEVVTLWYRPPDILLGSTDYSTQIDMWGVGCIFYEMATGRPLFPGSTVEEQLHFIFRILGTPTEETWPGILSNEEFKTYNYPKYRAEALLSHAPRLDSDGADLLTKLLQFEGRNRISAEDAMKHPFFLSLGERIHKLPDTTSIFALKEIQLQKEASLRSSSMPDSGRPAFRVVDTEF
T2 sequence (Q8ND76 whole entry partner): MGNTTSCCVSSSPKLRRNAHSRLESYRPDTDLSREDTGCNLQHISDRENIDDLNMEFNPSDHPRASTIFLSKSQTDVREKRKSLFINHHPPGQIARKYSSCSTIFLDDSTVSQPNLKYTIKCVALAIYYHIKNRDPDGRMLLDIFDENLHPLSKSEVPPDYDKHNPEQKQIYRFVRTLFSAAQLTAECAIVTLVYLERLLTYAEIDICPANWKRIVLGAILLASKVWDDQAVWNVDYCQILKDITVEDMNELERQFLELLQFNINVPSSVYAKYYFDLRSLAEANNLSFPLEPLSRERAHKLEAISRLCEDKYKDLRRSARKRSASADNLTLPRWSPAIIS
T3 sequence (Q9BWU1 whole entry): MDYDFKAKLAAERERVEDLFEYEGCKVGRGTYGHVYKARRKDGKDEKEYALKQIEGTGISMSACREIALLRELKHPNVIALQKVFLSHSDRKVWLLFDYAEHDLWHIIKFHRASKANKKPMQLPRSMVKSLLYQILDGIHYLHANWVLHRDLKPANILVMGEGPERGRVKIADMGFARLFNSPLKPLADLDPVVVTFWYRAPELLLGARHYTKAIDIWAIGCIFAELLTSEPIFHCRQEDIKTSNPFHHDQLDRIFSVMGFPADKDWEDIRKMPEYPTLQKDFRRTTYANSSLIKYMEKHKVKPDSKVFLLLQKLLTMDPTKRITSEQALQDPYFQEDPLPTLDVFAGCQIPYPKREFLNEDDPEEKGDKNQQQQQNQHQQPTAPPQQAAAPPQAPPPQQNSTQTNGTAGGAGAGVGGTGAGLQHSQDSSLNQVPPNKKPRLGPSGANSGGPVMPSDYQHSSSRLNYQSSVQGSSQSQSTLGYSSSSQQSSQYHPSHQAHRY
T3 sequence (P24863 whole entry partner): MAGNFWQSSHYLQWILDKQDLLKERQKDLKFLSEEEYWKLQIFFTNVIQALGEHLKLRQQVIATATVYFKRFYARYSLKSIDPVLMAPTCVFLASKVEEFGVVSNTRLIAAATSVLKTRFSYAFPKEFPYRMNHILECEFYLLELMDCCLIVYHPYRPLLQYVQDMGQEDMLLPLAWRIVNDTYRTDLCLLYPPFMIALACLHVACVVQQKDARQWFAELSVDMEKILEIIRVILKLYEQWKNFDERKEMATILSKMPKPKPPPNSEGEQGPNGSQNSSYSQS
T8 sequence (P49336 whole entry): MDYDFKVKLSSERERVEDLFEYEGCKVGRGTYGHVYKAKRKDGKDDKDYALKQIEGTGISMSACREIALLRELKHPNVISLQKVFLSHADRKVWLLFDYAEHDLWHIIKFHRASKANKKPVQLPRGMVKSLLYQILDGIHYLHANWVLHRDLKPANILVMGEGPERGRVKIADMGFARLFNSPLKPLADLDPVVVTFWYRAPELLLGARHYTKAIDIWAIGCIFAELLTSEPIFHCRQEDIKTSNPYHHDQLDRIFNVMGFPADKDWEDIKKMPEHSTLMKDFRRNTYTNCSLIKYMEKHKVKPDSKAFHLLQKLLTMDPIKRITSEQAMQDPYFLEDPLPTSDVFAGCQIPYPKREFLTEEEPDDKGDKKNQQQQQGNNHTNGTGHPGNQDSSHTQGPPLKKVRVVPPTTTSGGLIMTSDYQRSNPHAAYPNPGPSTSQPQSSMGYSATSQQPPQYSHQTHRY
T8 sequence (P24863 whole entry partner): as the sequence (P24863 whole entry partner) above
T9 sequence (P50750 whole entry): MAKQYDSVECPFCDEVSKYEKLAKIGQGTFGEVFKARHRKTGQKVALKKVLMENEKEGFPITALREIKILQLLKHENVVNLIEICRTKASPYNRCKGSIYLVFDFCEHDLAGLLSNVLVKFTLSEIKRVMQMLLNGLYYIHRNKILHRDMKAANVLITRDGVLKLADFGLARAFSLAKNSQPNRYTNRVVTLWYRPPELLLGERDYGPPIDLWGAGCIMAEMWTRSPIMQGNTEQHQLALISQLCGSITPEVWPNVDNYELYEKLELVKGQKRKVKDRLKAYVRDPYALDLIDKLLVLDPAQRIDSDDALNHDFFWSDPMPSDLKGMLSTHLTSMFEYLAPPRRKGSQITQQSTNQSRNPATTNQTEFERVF
T9 sequence (O60563 whole entry partner): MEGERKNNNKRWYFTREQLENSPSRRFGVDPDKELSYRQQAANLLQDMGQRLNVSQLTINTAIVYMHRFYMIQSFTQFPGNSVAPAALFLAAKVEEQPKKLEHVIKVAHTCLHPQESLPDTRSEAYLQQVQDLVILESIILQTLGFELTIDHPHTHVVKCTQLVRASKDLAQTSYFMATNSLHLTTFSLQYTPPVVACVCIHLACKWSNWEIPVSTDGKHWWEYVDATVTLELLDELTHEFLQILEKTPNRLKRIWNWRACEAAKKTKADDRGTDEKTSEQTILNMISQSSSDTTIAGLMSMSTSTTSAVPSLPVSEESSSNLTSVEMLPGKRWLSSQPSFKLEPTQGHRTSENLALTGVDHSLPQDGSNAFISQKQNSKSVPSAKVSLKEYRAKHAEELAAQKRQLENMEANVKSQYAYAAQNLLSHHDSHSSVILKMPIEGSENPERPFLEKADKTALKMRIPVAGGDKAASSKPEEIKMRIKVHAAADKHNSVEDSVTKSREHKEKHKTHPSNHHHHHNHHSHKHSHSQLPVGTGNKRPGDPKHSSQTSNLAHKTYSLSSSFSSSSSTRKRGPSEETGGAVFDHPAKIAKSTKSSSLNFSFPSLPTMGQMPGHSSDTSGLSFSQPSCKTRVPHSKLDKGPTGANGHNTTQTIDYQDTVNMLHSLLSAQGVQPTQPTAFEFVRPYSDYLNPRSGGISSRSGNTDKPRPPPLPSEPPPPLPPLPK
T5 sequence (P11802 whole entry): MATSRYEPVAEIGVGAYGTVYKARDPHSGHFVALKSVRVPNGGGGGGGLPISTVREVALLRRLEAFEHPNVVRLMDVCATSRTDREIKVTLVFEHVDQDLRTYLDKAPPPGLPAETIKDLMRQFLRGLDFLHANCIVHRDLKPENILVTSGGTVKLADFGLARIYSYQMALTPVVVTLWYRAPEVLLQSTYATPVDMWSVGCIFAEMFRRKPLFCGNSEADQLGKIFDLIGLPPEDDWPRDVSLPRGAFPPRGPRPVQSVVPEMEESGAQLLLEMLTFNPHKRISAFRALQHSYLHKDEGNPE
T5 sequence (P24385 whole entry partner): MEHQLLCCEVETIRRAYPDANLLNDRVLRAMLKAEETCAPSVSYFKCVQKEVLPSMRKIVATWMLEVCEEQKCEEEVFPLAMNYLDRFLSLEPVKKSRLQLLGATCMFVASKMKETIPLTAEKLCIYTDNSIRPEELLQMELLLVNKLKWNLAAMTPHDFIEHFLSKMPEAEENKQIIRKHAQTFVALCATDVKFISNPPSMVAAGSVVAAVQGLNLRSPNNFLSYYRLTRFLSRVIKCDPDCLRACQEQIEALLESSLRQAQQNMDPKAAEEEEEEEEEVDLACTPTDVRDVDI
T6 sequence (Q00534 whole entry): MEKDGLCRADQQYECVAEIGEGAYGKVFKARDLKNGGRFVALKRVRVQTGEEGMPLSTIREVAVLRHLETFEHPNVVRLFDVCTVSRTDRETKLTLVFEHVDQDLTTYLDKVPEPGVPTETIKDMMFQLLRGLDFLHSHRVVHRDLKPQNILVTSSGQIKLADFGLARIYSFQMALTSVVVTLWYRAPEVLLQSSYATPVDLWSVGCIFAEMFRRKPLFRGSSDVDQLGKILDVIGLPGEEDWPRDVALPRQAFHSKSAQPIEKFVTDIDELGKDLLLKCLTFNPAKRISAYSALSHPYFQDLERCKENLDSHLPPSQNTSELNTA
T6 sequence (P24385 whole entry partner): as the sequence (P24385 whole entry partner) above
T1 sequence (P06493 whole entry): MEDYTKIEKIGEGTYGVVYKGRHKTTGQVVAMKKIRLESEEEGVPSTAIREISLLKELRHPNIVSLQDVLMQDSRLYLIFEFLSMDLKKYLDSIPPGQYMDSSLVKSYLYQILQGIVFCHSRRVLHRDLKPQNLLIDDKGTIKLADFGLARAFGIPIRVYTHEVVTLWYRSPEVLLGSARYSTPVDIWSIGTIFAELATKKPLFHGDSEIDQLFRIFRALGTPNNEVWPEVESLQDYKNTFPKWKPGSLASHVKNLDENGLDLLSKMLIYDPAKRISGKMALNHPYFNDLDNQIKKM
T1 sequence (P14635 whole entry partner): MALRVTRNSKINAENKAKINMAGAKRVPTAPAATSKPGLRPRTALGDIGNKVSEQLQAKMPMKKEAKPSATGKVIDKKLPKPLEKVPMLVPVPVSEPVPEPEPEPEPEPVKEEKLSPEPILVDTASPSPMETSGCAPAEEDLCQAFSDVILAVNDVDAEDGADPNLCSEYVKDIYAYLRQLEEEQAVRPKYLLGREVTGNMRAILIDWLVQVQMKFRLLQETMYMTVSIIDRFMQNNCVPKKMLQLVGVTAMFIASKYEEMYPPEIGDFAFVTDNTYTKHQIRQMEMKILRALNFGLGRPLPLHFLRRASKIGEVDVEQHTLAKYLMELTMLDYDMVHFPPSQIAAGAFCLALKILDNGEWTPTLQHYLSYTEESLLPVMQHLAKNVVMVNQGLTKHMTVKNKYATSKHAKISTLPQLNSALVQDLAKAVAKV

Q: What does the source list for Cc1cc(NC2CCN(C(=O)O[C@H]3CCN(C(=O)/C=C/CN(C)C)C3)CC2)n2ncc(C(C)C)c2n1 [Example 1, [(3S)-1-[(E)-4-(dimethylamino)but-2-enoyl]pyrrolidin-3-yl] 4-[(3-isopropyl-5-methyl-pyrazolo[1,5-a]pyrimidin-7-yl)amino]piperidine-1-carboxylate]?
A: IC50 (CDK1/CycB1): ≥ 20 µM; IC50 (CDK16/CycY): 9.07 µM; IC50 (CDK19/CycC): 7.41 µM; IC50 (CDK2/CycE1): ≥ 20 µM; IC50 (CDK4/CycD1): 2.83 µM; IC50 (CDK6/CycD1): 8.08 µM; IC50 (CDK7/CycH/MAT1): 0.0928 µM; IC50 (CDK8/CycC): 10.9 µM; IC50 (CDK9/CycT1): 6.32 µM; IC50 (CDK12/CycK): 14.8 µM; IC50 (CDK13/CycK): ≥ 20 µM
